87 molecules from PubChem BioAssay AID2305 (GlaxoSmithKline (GSK), 2010) can be followed below.

Where “and” joins values, the source holds several entries; their conditions need not be identical. Equal values may be shown once.

The subject of this test is P. falciparum 3D7 growth, pLDH absorbance. As to the kind of experiment: P. falciparum 3D7 growth inhibition, dose response, strain 3D7 (AID 2305).

Regarding `CCN(CCCN1CCCC1)c1cc(C)nc(Nc2ccc(Cl)cc2)n1`, the IC50 came out at 340 nM.

As for `C#CCNCc1ccc(-c2cccc(-c3nc4c(C)cccc4[nH]3)c2)cc1`, the IC50 worked out at 820 nM.

As for `COc1cccc(C=Cc2nc(=O)c3ccccc3o2)c1OC`, the IC50 was 60 nM. As for `S=C(NCCc1ccccc1)Nc1ccc2ncsc2c1`, the IC50 came to 1400 nM. In turn, `COc1cccc(Nc2nc(C)cc(NC3CCN(Cc4ccccc4)CC3)n2)c1` gave an IC50 of 690 nM. For `CCC(C)CN1C(=O)C(c2ccccc2)(c2ccccc2)N=C1N` (configuration not stated), the IC50 stood at 710 nM.

In turn, `Cc1onc(-c2ccc(Cl)cc2)c1-c1ccnn1S(=O)(=O)c1ccc(Cl)cc1` yielded an IC50 of 710 nM. The result for `COc1cc(Cc2cnc(N)nc2N)cc(OCCCCCCN)c1OC` reads 190 nM.

Consider `COc1ccc(NC(=O)Nc2ccc(-c3ccncc3)c(Cl)c2)cc1N1CCN(C)CC1`, for which the IC50 came to 760 nM. The molecule `COc1cc2nc(-c3ccc(Br)cc3)cc(N)c2cc1OC` yielded a half-maximal inhibitory concentration (IC50) of 170 nM. The molecule `CC(C)c1cc2c(ccc3nc(N)nc(N)c32)[nH]1` registered an IC50 of 40 nM. Regarding `O=C1CCCN1CCCNCc1cccc(-c2ccc(-c3nc4ccccc4[nH]3)s2)c1`, the IC50 came out at 860 nM. `CC(C)CCCC(C)NC[C@@H](O)[C@H](Cc1ccccc1)NC(=O)c1cc(N2CCCC2=O)cc(N(c2ccccc2)S(C)(=O)=O)c1` (some centres not stated) had an IC50 of 60 nM. Regarding `Cc1cc(N2CCCC2=O)ccc1-c1ccc(C(=O)N2CCC(Oc3cccc(Cl)c3)CC2)cc1`, the IC50 was 430 nM. In turn, `Cn1ccnc1CNC(=O)c1ccc(-c2ccc(-c3nc4ccc(C(F)(F)F)cc4[nH]3)s2)cc1` showed an IC50 of 700 nM. For the molecule `O=C(NC1CC1)c1cnc(N2CCC(Oc3ccc(Cl)cc3)CC2)c(Cl)c1`, the 50% inhibitory concentration (IC50) came to 1090 nM. `O=C(Nc1cccc(CN2CCN(C(=O)c3cccs3)CC2)c1)c1cccs1` registered an IC50 of 780 nM. In turn, `CC(=O)Nc1ccc(OCCN(CC(C)(C)C)c2ccc(C#N)c(C(F)(F)F)c2)c(Cl)c1` had an IC50 of 490 nM.

For `N#Cc1ccc(CCNc2nccc(-c3cccc(CN4CCNCC4)c3)n2)cc1`, the IC50 is 1250 nM. `NC(N)=NN=Cc1ccccc1OCc1ccccc1Cl` yielded an IC50 of 720 nM. Then `Nc1cccc(CNCc2ccc(-c3cccc(-c4nc5ccc(F)cc5[nH]4)c3)cc2)c1`, with 210 nM; and `COc1c(F)ccc2ncc(Cl)c(CCN3CCC(NCc4ccc5c(n4)NC(=O)CS5)CC3)c12`, with 540 nM. The result for `c1ccc(C2=NN=C(c3ccccn3)[C@H]3[C@H]4C[C@@H]([C@@H]23)[C@@H]2[C@H]4[C@H]3C[C@@H]2c2ccccc23)nc1` reads 850 nM; that for `Cc1[nH]c(C)c(-c2ccc(OCc3ccc(F)cc3)cc2)c(=O)c1Cl`, 570 nM.

`CCN(CC)CCN(Cc1ccc(-c2ccc(C(F)(F)F)cc2)cc1)C(=O)Cn1cc(Cc2cnn(C)c2)c(=O)n2nc(-c3ccccc3)cc12` registered an IC50 of 730 nM. Take `COc1ccc2nccc([C@@H](O)CN3CCC(NCc4cc5cccc(O)c5[nH]4)CC3)c2c1`: the IC50 turned out to be 840 nM.

Turning to `CCc1c(CCNCCCCCCNCCc2ccc([N+](=O)[O-])cc2)ccc(O)c1O`, the IC50 came to 780 nM.

Regarding `CCOC(=O)/C(=N\OC(C(=O)OC(C)(C)C)c1ccccc1)c1csc(NC(c2ccccc2)(c2ccccc2)c2ccccc2)n1` (configuration not stated), the IC50 came out at 1110 nM. `N#Cc1ccc(N2CCN(Cc3ccc(-c4ccc(-c5nc6ccc(C(F)(F)F)cc6[nH]5)s4)cc3)CC2)nc1` displayed an IC50 of 810 nM. On to `CCOC(=O)C(C(C)=O)C(c1ccccc1)C(C(C)=O)C(=O)OCC` (configuration not stated), for which the IC50 came out at 750 nM. With `N#Cc1ccc2c(c1)CN(C1CCC(NC(=O)/C=C/c3cc(C(F)(F)F)cc(C(F)(F)F)c3)CC1)CCC2` (configuration not stated), the IC50 is 1390 nM. The result for `COc1ccc(N2CCN(CCCOc3ccc(NC(=O)c4cc(Cl)cc(Cl)c4)cc3)CC2)c(OC)c1` reads 900 nM; that for `CCC(C)c1ccc(Nc2nc(C)cc(N(CC)CCCN3CCCCC3)n2)cc1` (configuration not stated), 330 nM; that for `Nc1nccc2ccc(-c3cccc(OCc4ccccc4)c3)cc12`, 290 nM. The result for `N#Cc1cccc(NC(=O)Nc2cccc(OC3CCN(Cc4ccccc4)CC3)c2)c1` reads 840 nM; that for `Cc1noc(C)c1-c1cccc(CNCc2ccc(-c3ccc(-c4nc5c(C)cccc5[nH]4)cc3)cc2)c1`, 240 nM; that for `N#Cc1cccc(CNC(=O)c2cccc(Nc3ccnc4ccc(F)cc34)c2)c1`, 990 nM. In turn, `Cc1nc(N)nc(N)c1-c1ccc(Cl)c(Cl)c1` came in with a half-maximal inhibitory concentration (IC50) of 80 nM. On to `CC(C)(C(=O)Nc1ccc(C2CCC(NCC3CC3)CC2)c(Cl)c1)c1ccc(C(F)(F)F)cc1` (configuration not stated), for which the IC50 was 960 nM.

For `Cc1cccc2[nH]c(-c3ccc(-c4ccc(CN5CCCC(N)C5)cc4)s3)nc12` (configuration not stated), the IC50 came out at 380 nM. As for `O=C(NC1CCC(N2CCN(c3cccc4[nH]ccc34)CC2)CC1)c1cc2cccnc2[nH]1` (configuration not stated), the IC50 worked out at 490 nM. `CCC/C=C/c1c(CNCCCNc2cc(=O)c3ccccc3[nH]2)sc(CC)c1Br`: the IC50 came to 890 nM. Regarding `Cc1cccc(NC(=O)c2cnc(N3CCN(c4ccncc4)CC3)c(Cl)c2)c1`, the IC50 came out at 680 nM. The result for `Oc1c(Cl)cc(-c2ccccc2)cc1CNC1CCCCC1` reads 750 nM; that for `Cc1[nH]c(C)c(-c2ccc(Oc3ccc(F)cc3)cc2)c(=O)c1Cl`, 50 nM; that for `O=C(NC1CC1)c1ccc2cc(C(=O)N3Cc4ccccc4C(c4ccccc4)C3)ccc2c1` (configuration not stated), 910 nM. With `COc1ccccc1-c1nc2nc(N)nc(N)c2nc1-c1ccccc1OC`, the IC50 was 1250 nM. As to `S=C(NCCc1ccc(Cl)cc1)NC1CCC(CN2CCC(c3c[nH]c4ccccc34)CC2)CC1` (configuration not stated), the half-inhibitory concentration (IC50) was 700 nM. Turning to `CC(=O)C1(c2ccccc2)CCN(CCC(NC(=O)c2cc(C(F)(F)F)cc(C(F)(F)F)c2)c2ccc(Cl)c(Cl)c2)CC1` (configuration not stated), the IC50 was 1190 nM. Regarding `COc1cc(Nc2nccc(N3CCC(NC(=O)C(C)c4ccc(Cl)cc4)C3)n2)cc(OC)c1OC` (configuration not stated), the 50% inhibitory concentration (IC50) came out at 760 nM. In turn, `CCCOc1ccc(-c2nonc2NC(=O)c2cccc(OC)c2)cc1OCCC` returned an IC50 of 1150 nM.

For the molecule `COc1ccc(C2=C(Nc3ccc4oc5ccccc5c4c3)c3ccccc3C2=O)cc1`, the IC50 came out at 830 nM. Then `COc1cc(C(=O)NC2CCN(Cc3ccccc3)CC2)ccc1-c1nc2c(Cl)cc(C(F)(F)F)cc2[nH]1`, with 670 nM; and `Nc1ccc(-c2nc3cc(C4=N[C@H]5CCCC[C@H]5N4)ccc3o2)cc1[N+](=O)[O-]`, with 1120 nM. `CC(=O)Nc1ccc(S(=O)(=O)NC2=NC(C)(C)N(OCc3ccc(Cl)c(Cl)c3)C(N)=N2)cc1` gave an IC50 of 30 nM.

Regarding `COc1ccc2ncc(F)c(C(O)CN3CCC(NCc4ccc5c(n4)NC(=O)CO5)CC3)c2c1` (configuration not stated), the IC50 is 1110 nM and 370 nM. `O=C(Nc1cccc(-c2ccc(-c3nc4ccc(C(F)(F)F)cc4[nH]3)cc2)c1)c1cccnc1` returned an IC50 of 570 nM. Take `O=C(Nc1ccccc1)NC1CCN(CCC2(c3ccc(Cl)c(Cl)c3)COCN(C(=O)c3ccccc3)C2)C1` (configuration not stated): the IC50 came out at 880 nM. In turn, `Cc1cccc2[nH]c(-c3ccc(-c4cccc(NC(=O)C(C)CN(C)C)c4)cc3)nc12` (configuration not stated) showed an IC50 of 650 nM. With `COc1c(O)cc2oc(-c3ccc(O)cc3)cc(=O)c2c1O`, the IC50 was found to be 770 nM. In turn, `Cc1ccc(S(=O)(=O)c2nc(S(=O)(=O)c3ccccc3)sc2NCC2CCCO2)cc1` (configuration not stated) displayed a half-inhibitory concentration (IC50) of 1020 nM. Then `COc1ccc(NC(=O)Nc2cccc(-c3ccc(-c4nc5ccc(C(F)(F)F)cc5[nH]4)cc3)c2)cc1`, with 450 nM. Consider `CC(C)c1ccc(NC(=O)c2cccc(CN3CCCN(Cc4cccc(O)c4)CC3)c2)cc1`, for which the IC50 worked out at 770 nM. The molecule `CCC(CC)n1cc2c(ccc3nc(N)nc(N)c32)n1` showed an IC50 of 80 nM. With `CN(C(=O)C(C)(C)Oc1ccc(Cl)cc1)C1CCN(CCCCCNC(=O)/C=C/c2ccc(Cl)c(Cl)c2)CC1`, the IC50 stood at 920 nM.

`CC(CN(C)C)C(=O)Nc1cccc(-c2cccc(-c3nc4ccc(F)cc4[nH]3)c2)c1` (configuration not stated) registered an IC50 of 830 nM. Molecule `COc1ccc(NC(=O)c2csc(-c3cc(NC(=O)c4ccnc(N5CCCC5)c4)ccc3C)c2)cc1N1CCN(C)CC1` came in with an IC50 of 660 nM. As for `CCN(CCCN1CCCCC1)c1cc(C)nc(Nc2ccc(F)c(C(F)(F)F)c2)n1`, the concentration for half-maximal inhibition (IC50) worked out at 150 nM. The result for `N#Cc1cccc(NC(=O)Nc2cccc(-c3cccc(-c4nc5ccccc5[nH]4)c3)c2)c1` reads 90 nM; that for `CNC(=S)NN=C(C)c1ccccn1`, 270 nM; that for `COc1ccccc1CNc1ccnc(N2CC(Oc3ccc(F)cc3)C2)n1`, 850 nM.

As for `CC(=O)Oc1c(C2CCN(CCCCNC(=O)c3ccc(NC(=O)c4ccc(Cl)cc4)cc3)CC2)ccc2ccccc12`, the IC50 came to 880 nM.

The molecule `N#Cc1ccc2c(c1)CN(CCC1CCC(NC(=O)c3cc4cnccc4[nH]3)CC1)CC2` (configuration not stated) registered an IC50 of 800 nM. The molecule `CC[C@H]1CN2CC[C@@H]1C[C@H]2[C@H](O)c1cc(N2CCC(CO)CC2)nc2ccc(OC)cc12` returned an IC50 of 160 nM. The molecule `Nc1nnc(-c2ccc(Cl)c(Br)c2)c(N)n1` displayed an IC50 of 1040 nM. As for `COc1ccc(CNC2CCN(C)CC2)cc1-c1ccc(S(=O)(=O)NCc2ccccc2)s1`, the IC50 amounted to 230 nM. Turning to `CC(C)c1ccc(NC(=O)c2cccc(CN3CCCN(Cc4cccc(C#N)c4)CC3)c2)cc1`, the IC50 worked out at 950 nM. Molecule `CC(=O)Nc1nc(C(=O)Nc2ccc(-c3ccc(-c4nc5c(C)cccc5[nH]4)cc3)cc2)cs1` yielded an IC50 of 180 nM. For the molecule `COc1ccc(-c2nc3cccnc3n2CC(=O)Nc2cc(Cl)c(Cl)cc2Cl)c(OC)c1`, the IC50 worked out at 720 nM.

Molecule `Oc1ccccc1CN1CCN(C(c2ccccc2)c2ccccc2)CC1` yielded an IC50 of 760 nM. Molecule `CCCCCCCCCC(=O)NCC1CC(Br)=NO1` (configuration not stated) returned an IC50 of 1050 nM.

Take `CC(=O)NCCCCC1NC2(C(=O)N(Cc3ccc(C(C)(C)C)cc3)c3ccccc32)C2C(=O)N(C3CCCCC3)C(=O)C12` (configuration not stated): the IC50 amounted to 790 nM. For the molecule `Fc1ccccc1CNc1ncc(-c2ccsc2)c(-c2nccs2)n1`, the half-maximal inhibitory concentration (IC50) is 50 nM. Molecule `C=CCOC(=O)N1CCC(CNCc2cccc(-c3ccc(-c4nc5ccc(C(F)(F)F)cc5[nH]4)cc3)c2)C1` (configuration not stated) returned a concentration for half-maximal inhibition (IC50) of 150 nM.

The molecule `COc1ccc(Oc2ccccc2CNCC2CCN(CC3CCCCC3)CC2)cc1` returned an IC50 of 900 nM. On to `Clc1ccc2nc(-c3cccnc3)[nH]c2c1`, for which the IC50 is 40 nM. Take `C1=C(c2c[nH]c3ccccc23)CCN(Cc2ccccc2)C1`: the 50% inhibitory concentration (IC50) turned out to be 1040 nM.

For orientation: IC50 means the point on the concentration scale where inhibition reaches its midpoint.
